From patent US9783532B2, “Molecules having certain pesticidal utilities, and intermediates, compositions, and processes related thereto” (Dow AgroSciences LLC, priority 2013, dated 2017)

Legend:
[1] = tested on: Beet Armyworm (Spodoptera exigua) ("BAW"); assay: Bioassay on beet armyworm (BAW), 128-well diet tray assay; type: in vivo; conditions: for pest or weed control at 50 µg/cm2: Table ABC (FB), activity rating class, read-out: BAW (Biological Results, Insect species); for mortality at 50 µg/cm2: 168 h, 50 μg/cm^2 on artificial diet, second instar BAW larvae, 25° C., five to seven days, average of eight wells, read-out: BAW % Control (or Mortality) rating
Procedure: (§1) Certain molecules disclosed in this document were tested against BAW and CEW using procedures described in the following examples. In the reporting of the results, the “BAW & CL Rating Table” was used (See Table Section). BIOASSAYS ON BAW
Bioassays on BAW were conducted using a 128-well diet tray assay. one to five second instar BAW larvae were placed in each well (3 mL) of the diet tray that had been previously filled with 1 mL of artificial diet to which 50 μg/cm^2 of the test compound (dissolved in 50 μL of 90:10 acetone-water mixture) had been applied (to each of eight wells) and then allowed to dry. Trays were covered with a clear self-adhesive cover and held at 25° C., 14:10 light-dark for five to seven days. Percent mortality was recorded for the larvae in each well; activity in the eight wells was then averaged. The results are indicated in the table entitled “Table ABC: Biological Results” (See Table Section).

[2] = tested on: Cabbage Looper (Trichoplusia ni) ("CL"); assay: Bioassay on cabbage looper (CL), 128-well diet tray assay; type: in vivo; conditions: for pest or weed control at 50 µg/cm2: Table ABC (FB), activity rating class, read-out: CL (Biological Results, Insect species); for mortality at 50 µg/cm2: 168 h, 50 μg/cm^2 on artificial diet, second instar CL larvae, 25° C., five to seven days, average of eight wells, read-out: CL % Control (or Mortality) rating
Procedure: as §1
Bioassays on CL were conducted using a 128-well diet tray assay. one to five second instar CL larvae were placed in each well (3 mL) of the diet tray that had been previously filled with 1 mL of artificial diet to which 50 μg/cm^2 of the test compound (dissolved in 50 μL of 90:10 acetone-water mixture) had been applied (to each of eight wells) and then allowed to dry. Trays were covered with a clear self-adhesive cover and held at 25° C., 14:10 light-dark for five to seven days. Percent mortality was recorded for the larvae in each well; activity in the eight wells was then averaged. The results are indicated in the table entitled “Table ABC: Biological Results” (See Table Section).

In the case of `CCc1cccc(C)c1N1C(=O)CS/C1=N\C(=O)NCc1cccc(-c2ncn(-c3ccc(OC(F)(F)F)cc3)n2)c1` [FB30, (Z)-1-(3-(2-ethyl-6-methylphenyl)-4-oxothiazolidin-2-ylidene)-3-(3-(1-(4-(trifluoromethoxy)phenyl)-1H-1,2,4-triazol-3-yl)benzyl)urea], the pest or weed control at 50 µg/cm2 [1] was 50 to 100% and the pest or weed control at 50 µg/cm2 [2] was 50 to 100%.

Compound `CC(C)c1ccccc1N1C(=O)CS/C1=N\C(=O)NCc1cccc(-c2ncn(-c3ccc(OC(F)(F)F)cc3)n2)c1` [FB31, (Z)-1-(3-(2-isopropylphenyl)-4-oxothiazolidin-2-ylidene)-3-(3-(1-(4-(trifluoromethoxy)phenyl)-1H-1,2,4-triazol-3-yl)benzyl)urea] has a pest or weed control at 50 µg/cm2 [1] of 50 to 100% and a pest or weed control at 50 µg/cm2 [2] of 50 to 100%.

Compound `Cc1ccc(N2C(=O)CS/C2=N\C(=O)NCc2cccc(-c3ncn(-c4ccc(OC(F)(F)F)cc4)n3)c2)c(C(C)C)c1` [FB32, (Z)-1-(3-(2-isopropyl-4-methylphenyl)-4-oxothiazolidin-2-ylidene)-3-(3-(1-(4-(trifluoromethoxy)phenyl)-1H-1,2,4-triazol-3-yl)benzyl)urea] has a pest or weed control at 50 µg/cm2 [1] of 50 to 100% and a pest or weed control at 50 µg/cm2 [2] of 50 to 100%.

For `CC(C)c1cc(F)ccc1N1C(=O)CS/C1=N\C(=O)NCc1cccc(-c2ncn(-c3ccc(OC(F)(F)F)cc3)n2)c1` [FB33, (Z)-1-(3-(4-fluoro-2-isopropylphenyl)-4-oxothiazolidin-2-ylidene)-3-(3-(1-(4-(trifluoromethoxy)phenyl)-1H-1,2,4-triazol-3-yl)benzyl)urea], the pest or weed control at 50 µg/cm2 [1] was 50 to 100% and the pest or weed control at 50 µg/cm2 [2] was 50 to 100%.

Compound `CC(C)c1ccc(Cl)cc1N1C(=O)CS/C1=N\C(=O)NCc1cccc(-c2ncn(-c3ccc(OC(F)(F)F)cc3)n2)c1` [FB35, (Z)-1-(3-(5-chloro-2-isopropylphenyl)-4-oxothiazolidin-2-ylidene)-3-(3-(1-(4-(trifluoromethoxy)phenyl)-1H-1,2,4-triazol-3-yl)benzyl)urea] has a pest or weed control at 50 µg/cm2 [1] of 50 to 100% and a pest or weed control at 50 µg/cm2 [2] of 50 to 100%.

`COc1ccc(NC(=S)NC(=O)NCCCCc2cccc(-c3ncn(-c4ccc(OC(F)(F)F)cc4)n3)c2)c(C)c1` [FB36, 1-[(4-methoxy-2-methyl-phenyl)carbamothioyl]-3-[4-[3-[1-[4-(trifluoromethoxy)phenyl]-1H-1,2,4-triazol-3-yl]phenyl]butyl]urea] gave a pest or weed control at 50 µg/cm2 [1] of 0 to 50% and a pest or weed control at 50 µg/cm2 [2] of 50 to 100%.

`CC(C)c1ccc(Cl)cc1NC(=S)NC(=O)NCCCCc1cccc(-c2ncn(-c3ccc(OC(F)(F)F)cc3)n2)c1` [FB37, 1-[(5-chloro-2-isopropyl-phenyl)carbamothioyl]-3-[4-[3-[1-[4-(trifluoromethoxy)phenyl]-1H-1,2,4-triazol-3-yl]phenyl]butyl]urea] was tested, and the pest or weed control at 50 µg/cm2 [1] was 0 to 50% and the pest or weed control at 50 µg/cm2 [2] was 0 to 50%.

Work on `COc1ccc(N2C(=O)CS/C2=N\C(=O)NCCCCc2cccc(-c3ncn(-c4ccc(OC(F)(F)F)cc4)n3)c2)c(C)c1` [FB38, (Z)-1-(3-(4-methoxy-2-methylphenyl)-4-oxothiazolidin-2-ylidene)-3-(4-(3-(1-(4-(trifluoromethoxy)phenyl)-1H-1,2,4-triazol-3-yl)phenyl)butyl)urea] yielded a pest or weed control at 50 µg/cm2 [1] of 0 to 50% and a pest or weed control at 50 µg/cm2 [2] of 50 to 100%.

In the case of `CC(C)c1ccc(Cl)cc1N1C(=O)CS/C1=N\C(=O)NCCCCc1cccc(-c2ncn(-c3ccc(OC(F)(F)F)cc3)n2)c1` [FB39, (Z)-1-(3-(5-chloro-2-isopropylphenyl)-4-oxothiazolidin-2-ylidene)-3-(4-(3-(1-(4-(trifluoromethoxy)phenyl)-1H-1,2,4-triazol-3-yl)phenyl)butyl)urea], the pest or weed control at 50 µg/cm2 [1] was 50 to 100% and the pest or weed control at 50 µg/cm2 [2] was 50 to 100%.

`Cc1ccc(C(C)C)c(N2C(=O)CS/C2=N\C(=O)N[C@H](C)Cc2ccc(-c3ncn(-c4ccc(OC(F)(F)F)cc4)n3)cc2)c1` [FB45, (R,Z)-1-(3-(2-isopropyl-5-methylphenyl)-4-oxothiazolidin-2-ylidene)-3-(1-(4-(1-(4-(trifluoromethoxy)phenyl)-1H-1,2,4-triazol-3-yl)phenyl)propan-2-yl)urea] gave a pest or weed control at 50 µg/cm2 [1] of 50 to 100% and a pest or weed control at 50 µg/cm2 [2] of 50 to 100%.

For `CC(C)c1ccc(Cl)cc1N1C(=O)CS/C1=N\C(=O)NCCc1ccc(-c2ncn(-c3ccc(C(F)(F)F)cc3)n2)cc1` [FB50, (Z)-1-(3-(5-chloro-2-isopropylphenyl)-4-oxothiazolidin-2-ylidene)-3-(4-(1-(4-(trifluoromethyl)phenyl)-1H-1,2,4-triazol-3-yl)phenethyl)urea], the pest or weed control at 50 µg/cm2 [1] was 50 to 100% and the pest or weed control at 50 µg/cm2 [2] was 50 to 100%.

`Cc1ccc(C(C)C)c(N2C(=O)CS/C2=N\C(=O)NC(C)(C)Cc2ccc(-c3ncn(-c4ccc(OC(F)(F)F)cc4)n3)cc2)c1` [FB52, (Z)-1-(3-(2-isopropyl-5-methylphenyl)-4-oxothiazolidin-2-ylidene)-3-(2-methyl-1-(4-(1-(4-(trifluoromethoxy)phenyl)-1H-1,2,4-triazol-3-yl)phenyl)propan-2-yl)urea] showed a pest or weed control at 50 µg/cm2 [1] of 50 to 100% and a pest or weed control at 50 µg/cm2 [2] of 50 to 100%.

For `CCc1ccc(C)cc1N1/C(=N/C(=O)NCCc2ccc(-c3ncn(-c4ccc(OC(F)(F)F)cc4)n3)cc2)SCC1C` (stereo not drawn) [FB55, (Z)-1-(3-(2-ethyl-5-methylphenyl)-4-methylthiazolidin-2-ylidene)-3-(4-(1-(4-(trifluoromethoxy)phenyl)-1H-1,2,4-triazol-3-yl)phenethyl)urea], the pest or weed control at 50 µg/cm2 [1] was 50 to 100% and the pest or weed control at 50 µg/cm2 [2] was 50 to 100%.

In the case of `Cc1ccc(C(C)C)c(N2C(=O)C(F)S/C2=N\C(=O)NCCc2ccc(-c3ncn(-c4ccc(OC(F)(F)F)cc4)n3)cc2)c1` (stereo not drawn) [FB64, (Z)-1-(5-fluoro-3-(2-isopropyl-5-methylphenyl)-4-oxothiazolidin-2-ylidene)-3-(4-(1-(4-(trifluoromethoxy)phenyl)-1H-1,2,4-triazol-3-yl)phenethyl)urea], the pest or weed control at 50 µg/cm2 [1] was 50 to 100% and the pest or weed control at 50 µg/cm2 [2] was 50 to 100%.

`CCS/C(=N\C(=O)NCCc1ccc(-c2ncn(-c3ccc(OC(F)(F)F)cc3)n2)cc1)Nc1cc(C)ccc1C(C)C` [FB66, (Z)-ethyl N-(2-isopropyl-5-methylphenyl)-N′-((4-(1-(4-(trifluoromethoxy)phenyl)-1H-1,2,4-triazol-3-yl)phenethyl)carbamoyl)carbamimidothioate] showed a pest or weed control at 50 µg/cm2 [1] of 50 to 100% and a pest or weed control at 50 µg/cm2 [2] of 50 to 100%.

`Cc1ccc(C(C)C)c(N2C(=O)C(C)(C)S/C2=N\C(=O)NCCc2ccc(-c3ncn(-c4ccc(OC(F)(F)F)cc4)n3)cc2)c1` [FB68, (Z)-1-(3-(2-isopropyl-5-methylphenyl)-5,5-dimethyl-4-oxothiazolidin-2-ylidene)-3-(4-(1-(4-(trifluoromethoxy)phenyl)-1H-1,2,4-triazol-3-yl)phenethyl)urea] was tested, and the pest or weed control at 50 µg/cm2 [1] was 50 to 100% and the pest or weed control at 50 µg/cm2 [2] was 50 to 100%.

`Cc1ccc(C(C)C)c(N2C(=O)C3(CC3)S/C2=N\C(=O)NCCc2ccc(-c3ncn(-c4ccc(OC(F)(F)F)cc4)n3)cc2)c1` [FB69, (Z)-1-(6-(2-isopropyl-5-methylphenyl)-7-oxo-4-thia-6-azaspiro[2.4]heptan-5-ylidene)-3-(4-(1-(4-(trifluoromethoxy)phenyl)-1H-1,2,4-triazol-3-yl)phenethyl)urea] showed a pest or weed control at 50 µg/cm2 [1] of 50 to 100% and a pest or weed control at 50 µg/cm2 [2] of 50 to 100%.

For `Cc1ccc(C(C)C)c(N2C(=O)C(C(C)(C)O)S/C2=N\C(=O)NCCc2ccc(-c3ncn(-c4ccc(OC(F)(F)F)cc4)n3)cc2)c1` (stereo not drawn) [FB72, (Z)-1-(5-(2-hydroxypropan-2-yl)-3-(2-isopropyl-5-methylphenyl)-4-oxothiazolidin-2-ylidene)-3-(4-(1-(4-(trifluoromethoxy)phenyl)-1H-1,2,4-triazol-3-yl)phenethyl)urea], the pest or weed control at 50 µg/cm2 [1] was 50 to 100% and the pest or weed control at 50 µg/cm2 [2] was 50 to 100%.

In the case of `Cc1ccccc1N1C(=O)CS/C1=N\C(=O)NCc1ccc(-c2ncn(-c3ccc(OC(F)(F)F)cc3)n2)cc1` [P1, (Z)-1-(4-oxo-3-(o-tolyl)thiazolidin-2-ylidene)-3-(4-(1-(4-(trifluoromethoxy)phenyl)-1H-1,2,4-triazol-3-yl)benzyl)urea], the mortality at 50 µg/cm2 [1] was 50 to 100% and the mortality at 50 µg/cm2 [2] was 50 to 100%.

Compound `CCc1ccccc1N1C(=O)CS/C1=N\C(=O)NCc1ccc(-c2ncn(-c3ccc(OC(F)(F)F)cc3)n2)cc1` [P2, P532, (Z)-1-(3-(2-ethylphenyl)-4-oxothiazolidin-2-ylidene)-3-(4-(1-(4-(trifluoromethoxy)phenyl)-1H-1,2,4-triazol-3-yl)benzyl)urea] has a mortality at 50 µg/cm2 [1] of 50 to 100% and a mortality at 50 µg/cm2 [2] of 50 to 100%.

`CC(C)c1cc(F)ccc1N1C(=O)CS/C1=N\C(=O)NCc1ccc(-c2ncn(-c3ccc(OC(F)(F)F)cc3)n2)cc1` [P3, P1172, (Z)-1-(3-(4-fluoro-2-isopropylphenyl)-4-oxothiazolidin-2-ylidene)-3-(4-(1-(4-(trifluoromethoxy)phenyl)-1H-1,2,4-triazol-3-yl)benzyl)urea] showed a mortality at 50 µg/cm2 [1] of 50 to 100% and a mortality at 50 µg/cm2 [2] of 50 to 100%.
